Measurements: patent US11944605B2, “Rapamycin analogs and uses thereof” (Janssen Pharmaceutica NV, priority 2018, dated 2024)

Each molecule was assayed on pS6K1 (p-p70 S6 Kinase (Thr389)) in MCF-7 cells (assay: AlphaLISA Ultra pS6K1 Assay). Settings: Homo sapiens, 1.5 h; MCF7 cells, 90 min.
Assay type: cell-based
Procedure: AlphaLISA Ultra pS6K1 Assay
1. Seed MCF-7 cells in Corning 3701 plate and incubate for 20˜24 hour. 12,000˜16,000 cells will be seeded in 36 μL medium per well.
2. Change the culture medium with fresh medium and incubate for another 2 hours.
3. Add 12 μL (4×) compounds into the cell plate by HAMILTON. Final DMSO concentration is 0.5%. Incubate for 90 minutes.
4. Aspirate […] by HAMILTON, 10 μL rest per well.
5. Add 10 μL 2× lysis buffer using HAMILTON; total volume in wells is 20 μL. Allow cells to shake for 30 min. Cover plate by plastic foil and store plate at −80° C. up to analysis.
6. Thaw cell lysate at RT and transfer 10 μL lysate to assay plate (Optiplate-384).
7. Add 5 μL acceptor beads into assay plate and incubation for 2 hours
8. Add 5 μL donor beads and incubation for 2 hours
9. Count the plate by EnSpire Multimode Plate Reader

IC50 [nM] | Compound
1 to 10 | CO[C@@H]1C[C@H](C[C@@H](C)[C@@H]2CC(=O)[C@H](C)/C=C(\C)[C@@H](O)[C@@H](OC)C(=O)[C@H](C)C[C@H](C)/C=C/C=C/C=C(\C)[C@H](OCCOCCO)C[C@@H]3CC[C@@H](C)[C@@](O)(O3)C(=O)C(=O)N3CCCC[C@H]3C(=O)O2)CC[C@H]1OCCOCCO [Compound I-66]
0.1 to 1 | CO[C@@H]1C[C@H](C[C@@H](C)[C@@H]2CC(=O)[C@H](C)/C=C(\C)[C@@H](O)[C@@H](OC)C(=O)[C@H](C)C[C@H](C)/C=C/C=C/C=C(\C)[C@@H](OCCOCCO)C[C@@H]3CC[C@@H](C)[C@@](O)(O3)C(=O)C(=O)N3CCCC[C@H]3C(=O)O2)CC[C@H]1OCCOCCO [Compound I-67]
1 to 10 | CO[C@@H]1C[C@H](C[C@@H](C)[C@@H]2CC(=O)[C@H](C)/C=C(\C)[C@@H](O)[C@@H](OC)C(=O)[C@H](C)C[C@H](C)/C=C/C=C/C=C(\C)[C@H](OCCOCCOCCO)C[C@@H]3CC[C@@H](C)[C@@](O)(O3)C(=O)C(=O)N3CCCC[C@H]3C(=O)O2)CC[C@H]1OCCOCCOCCO [Compound I-72]
1 to 10 | CO[C@@H]1C[C@H](C[C@@H](C)[C@@H]2CC(=O)[C@H](C)/C=C(\C)[C@@H](O)[C@@H](OC)C(=O)[C@H](C)C[C@H](C)/C=C/C=C/C=C(\C)[C@@H](OCCOCCOCCO)C[C@@H]3CC[C@@H](C)[C@@](O)(O3)C(=O)C(=O)N3CCCC[C@H]3C(=O)O2)CC[C@H]1OCCOCCOCCO [Compound I-73]
1 to 10 | CO[C@@H]1C[C@H](C[C@@H](C)[C@@H]2CC(=O)[C@H](C)/C=C(\C)[C@@H](O)[C@@H](OC)C(=O)[C@H](C)C[C@H](C)/C=C/C=C/C=C(\C)C(OCCOCCO)C[C@@H]3CC[C@@H](C)[C@@](O)(O3)C(=O)C(=O)N3CCCC[C@H]3C(=O)O2)CC[C@H]1OCCOCCO (some centres unmarked) [Compound I-76]
1 to 10 | CO[C@@H]1C[C@H](C[C@@H](C)[C@@H]2CC(=O)[C@H](C)/C=C(\C)[C@@H](O)[C@@H](OC)C(=O)[C@H](C)C[C@H](C)/C=C/C=C/C=C(\C)C(OCCOCCOCCO)C[C@@H]3CC[C@@H](C)[C@@](O)(O3)C(=O)C(=O)N3CCCC[C@H]3C(=O)O2)CC[C@H]1OCCOCCOCCO (some centres unmarked) [Compound I-78]
< 0.1 | CO[C@@H]1C[C@H](C[C@@H](C)[C@@H]2CC(=O)[C@H](C)/C=C(\C)[C@@H](O)[C@@H](OC)C(=O)[C@H](C)C[C@H](C)/C=C/C=C/C=C(\C)C(OCCOCCOCC(F)(F)F)C[C@@H]3CC[C@@H](C)[C@@](O)(O3)C(=O)C(=O)N3CCCC[C@H]3C(=O)O2)CC[C@H]1OCCO (some centres unmarked) [Compound I-86]
< 0.1 | CO[C@@H]1C[C@H](C[C@@H](C)[C@@H]2CC(=O)[C@H](C)/C=C(\C)[C@@H](O)[C@@H](OC)C(=O)[C@H](C)C[C@H](C)/C=C/C=C/C=C(\C)C(OCCOCCOC(F)(F)F)C[C@@H]3CC[C@@H](C)[C@@](O)(O3)C(=O)C(=O)N3CCCC[C@H]3C(=O)O2)CC[C@H]1OCCO (some centres unmarked) [Compound I-88]

The next lines start with the molecule.

Compound | IC50 [nM]
CO[C@@H]1C[C@H](C[C@@H](C)[C@@H]2CC(=O)[C@H](C)/C=C(\C)[C@@H](O)[C@@H](OC)C(=O)[C@H](C)C[C@H](C)/C=C/C=C/C=C(\C)[C@H](OC[C@@H](O)[C@@H](O)[C@H](O)[C@H](O)CO)C[C@@H]3CC[C@@H](C)[C@@](O)(O3)C(=O)C(=O)N3CCCC[C@H]3C(=O)O2)CC[C@H]1O [Compound I-57] | < 0.1
CO[C@@H]1C[C@H](C[C@@H](C)[C@@H]2CC(=O)[C@H](C)/C=C(\C)[C@@H](O)[C@@H](OC)C(=O)[C@H](C)C[C@H](C)/C=C/C=C/C=C(\C)[C@@H](OC[C@@H](O)[C@@H](O)[C@H](O)[C@H](O)CO)C[C@@H]3CC[C@@H](C)[C@@](O)(O3)C(=O)C(=O)N3CCCC[C@H]3C(=O)O2)CC[C@H]1O [Compound I-58] | 0.1 to 1
CO[C@@H]1C[C@H](C[C@@H](C)[C@@H]2CC(=O)[C@H](C)/C=C(\C)[C@@H](O)[C@@H](OC)C(=O)[C@H](C)C[C@H](C)/C=C/C=C/C=C(\C)C(OC[C@@H](O)[C@@H](O)[C@H](O)[C@H](O)CO)C[C@@H]3CC[C@@H](C)[C@@](O)(O3)C(=O)C(=O)N3CCCC[C@H]3C(=O)O2)CC[C@H]1O (some centres unmarked) [Compound I-63] | ≥ 100
CO[C@@H]1C[C@H](C[C@@H](C)[C@@H]2CC(=O)[C@H](C)/C=C(\C)[C@@H](O)[C@@H](OC)C(=O)[C@H](C)C[C@H](C)/C=C/C=C/C=C(\C)[C@H](OCCOCC(COCCO)COCCO)C[C@@H]3CC[C@@H](C)[C@@](O)(O3)C(=O)C(=O)N3CCCC[C@H]3C(=O)O2)CC[C@H]1O [Compound I-64] | 1 to 10
CO[C@@H]1C[C@H](C[C@@H](C)[C@@H]2CC(=O)[C@H](C)/C=C(\C)[C@@H](O)[C@@H](OC)C(=O)[C@H](C)C[C@H](C)/C=C/C=C/C=C(\C)[C@@H](OCCOCC(COCCO)COCCO)C[C@@H]3CC[C@@H](C)[C@@](O)(O3)C(=O)C(=O)N3CCCC[C@H]3C(=O)O2)CC[C@H]1O [Compound I-65] | 0.1 to 1
CNC(=O)OCCO[C@@H]1C[C@@H]2CC[C@@H](C)[C@@](O)(O2)C(=O)C(=O)N2CCCC[C@H]2C(=O)O[C@H]([C@H](C)C[C@@H]2CC[C@@H](OCCO)[C@H](OC)C2)CC(=O)[C@H](C)/C=C(\C)[C@@H](O)[C@@H](OC)C(=O)[C@H](C)C[C@H](C)/C=C/C=C/C=C/1C [Compound I-74] | 0.1 to 1
CNC(=O)OCCO[C@H]1C[C@@H]2CC[C@@H](C)[C@@](O)(O2)C(=O)C(=O)N2CCCC[C@H]2C(=O)OC([C@H](C)CC2CC[C@@H](OCCO)[C@H](OC)C2)CC(=O)[C@H](C)/C=C(\C)[C@@H](O)[C@@H](OC)C(=O)[C@H](C)C[C@H](C)/C=C/C=C/C=C/1C (some centres unmarked) [Compound I-75] | < 0.1
CO[C@@H]1C[C@H](C[C@@H](C)[C@@H]2CC(=O)[C@H](C)/C=C(\C)[C@@H](O)[C@@H](OC)C(=O)[C@H](C)C[C@H](C)/C=C/C=C/C=C(\C)[C@H](OCCOCCOC(F)(F)C(F)(F)F)C[C@@H]3CC[C@@H](C)[C@@](O)(O3)C(=O)C(=O)N3CCCC[C@H]3C(=O)O2)CC[C@H]1OCCO [Compound I-79] | 1 to 10
CO[C@@H]1C[C@H](C[C@@H](C)[C@@H]2CC(=O)[C@H](C)/C=C(\C)[C@@H](O)[C@@H](OC)C(=O)[C@H](C)C[C@H](C)/C=C/C=C/C=C(\C)[C@@H](OCCOCCOC(F)(F)C(F)(F)F)C[C@@H]3CC[C@@H](C)[C@@](O)(O3)C(=O)C(=O)N3CCCC[C@H]3C(=O)O2)CC[C@H]1OCCO [Compound I-80] | 0.1 to 1
CNC(=O)OCCOC1C[C@@H]2CC[C@@H](C)[C@@](O)(O2)C(=O)C(=O)N2CCCC[C@H]2C(=O)O[C@H]([C@H](C)C[C@@H]2CC[C@@H](OCCO)[C@H](OC)C2)CC(=O)[C@H](C)/C=C(\C)[C@@H](O)[C@@H](OC)C(=O)[C@H](C)C[C@H](C)/C=C/C=C/C=C/1C (some centres unmarked) [Compound I-81] | 1 to 10
CO[C@@H]1C[C@H](C[C@@H](C)[C@@H]2CC(=O)[C@H](C)/C=C(\C)[C@@H](O)[C@@H](OC)C(=O)[C@H](C)C[C@H](C)/C=C/C=C/C=C(\C)[C@H](OCCOCCOC(F)(F)F)C[C@@H]3CC[C@@H](C)[C@@](O)(O3)C(=O)C(=O)N3CCCC[C@H]3C(=O)O2)CC[C@H]1OCCO [Compound I-82] | 0.1 to 1
CO[C@@H]1C[C@H](C[C@@H](C)[C@@H]2CC(=O)[C@H](C)/C=C(\C)[C@@H](O)[C@@H](OC)C(=O)[C@H](C)C[C@H](C)/C=C/C=C/C=C(\C)C(OCCOCCOC(F)(F)C(F)(F)F)C[C@@H]3CC[C@@H](C)[C@@](O)(O3)C(=O)C(=O)N3CCCC[C@H]3C(=O)O2)CC[C@H]1OCCO (some centres unmarked) [Compound I-87] | < 0.1
